{
  "source": "patent US7842691B2",
  "about": "“Method for the treatment of myelodysplastic syndromes using cyclopropanecarboxylic acid {2-[1-(3-ethoxy-4-methoxy-phenyl)-2-methanesulfonyl-ethyl]-3-OXO-2,3-dihydro-1 H-isoindol-4-yl}-amide” (Celgene Corporation, priority 2003, dated 2010)",
  "key": {"[1]": {"test_system": "MDS patients", "details": "cited from earlier work; for granulocytopoiesis in treated patients / improvement in hemoglobin or platelet counts: clinical trials of MDS patients"}, "[2]": {"test_system": "production of various cytokines", "test": "In vitro pharmacology studies, effects on production of various cytokines, activity comparison with thalidomide", "type": "cell-based, human", "procedure": "The pharmacological properties of 3-(3,4-dimethoxy-phenyl)-3-(1-oxo-1,3-dihydro-isoindol-2-yl)-propionamide, including activity comparisons with thalidomide, are characterized in in vitro studies. Studies examine the effects of 3-(3,4-dimethoxy-phenyl)-3-(1-oxo-1,3-dihydro-isoindol-2-yl)-propionamide on the production of various cytokines. In addition, a safety pharmacology study of -(3,4-dimethoxy-phenyl)-3-(1-oxo-1,3-dihydro-isoindol-2-yl)-propionamide is conducted in dogs and the effects of the compound on ECG parameters are examined further as part of three repeat-dose toxicity studies in primates.\nInhibition of TNF-α production following LPS-stimulation of human PBMC and human whole blood by 3-(3,4-dimethoxy-phenyl)-3-(1-oxo-1,3-dihydro-isoindol-2-yl)-propionamide is investigated in vitro (Muller et al., Bioorg. Med. Chem. Lett. 9:1625-1630, 1999). The IC50's of 3-(3,4-dimethoxy-phenyl)-3-(1-oxo-1,3-dihydro-isoindol-2-yl)-propionamide for inhibiting production of TNF-α following LPS-stimulation of PBMC and human whole blood is measured.\n(§1) The pharmacological effects of 3-(3,4-dimethoxy-phenyl)-3-(1-oxo-1,3-dihydro-isoindol-2-yl)-propionamide derive from its action as an inhibitor of cellular response to receptor-initiated trophic signals (e.g., IGF-1, VEGF, cyclooxygenase-2), and other activities."}, "[3]": {"test_system": "AML cells", "test": "Mitogenic response to VEGF in AML cells (ligand-induced Akt-phosphorylation)", "type": "cell-based", "details": "by extinguishing ligand-induced Akt-phosphorylation", "source_text": "as §1"}, "[4]": {"test_system": "MDS bone marrow progenitor formation", "test": "MDS vs normal bone marrow progenitor formation in pre-clinical models", "type": "cell-based", "source_text": "as §1"}},
  "data": [
    {"molecule": "erythropoietin [recombinant human EPO]", "values": [
      {"measurement": "patients with sustained improvement in hemoglobin or decrease in transfusion requirement", "setting": "[1]; MDS patients treated with recombinant human EPO", "result": "less than 25 % of patients"}
    ]},
    {"molecule": "COc1ccc(C(CC(N)=O)N2Cc3ccccc3C2=O)cc1OC", "note": "(centres unmarked) [3-(3,4-dimethoxy-phenyl)-3-(1-oxo-1,3-dihydro-isoindol-2-yl)-propionamide]", "values": [
      {"measurement": "generation of inflammatory cytokines", "setting": "[2]", "result": "suppresses the generation of inflammatory cytokines"},
      {"measurement": "mitogenic response to VEGF", "setting": "[3]", "result": "abrogates mitogenic response to VEGF in AML cells"},
      {"measurement": "MDS vs normal bone marrow progenitor formation", "setting": "[4]", "result": "selectively suppresses MDS vs normal bone marrow progenitor formation"}
    ]},
    {"molecule": "granulocyte macrophage colony stimulating factor [GM-CSF]", "values": [
      {"measurement": "granulocytopoiesis in treated patients", "setting": "[1]", "result": "can restore granulocytopoiesis"},
      {"measurement": "improvement in hemoglobin or platelet counts", "setting": "[1]", "result": "little or no improvement"}
    ]},
    {"molecule": "granulocyte colony stimulating factor (protein, UniProt P09919 31-207, looked up, granulocyte colony stimulating factor, recombinant human) Granulocyte …: TPLGPASSLPQSFLLKCLEQVRKIQGDGAALQEKLVSECATYKLCHPEELVLLGHSLGIPWAPLSSCPSQALQLAGCLSQLHSGLFLYQGLLQALEGISPELGPTLDTLQLDVADFATTIWQQMEELGMAPALQPTQGAMPAFASAFQRRAGGVLVASHLQSFLEVSYRVLRHLAQP", "values": [
      {"measurement": "granulocytopoiesis in treated patients", "setting": "[1]", "result": "can restore granulocytopoiesis"},
      {"measurement": "improvement in hemoglobin or platelet counts", "setting": "[1]", "result": "little or no improvement"}
    ]}
  ]
}
